Reference: patent US9193731B2, “Antimicrobial compounds and methods of making and using the same” (Melinta Therapeutics, Inc., priority 2009, dated 2015)

Tested on: Escherichia coli strain ATCC25922
Experiment: standard microdilution assay to determine minimum inhibitory concentrations (MICs)
Format: cell-based
Conditions: Escherichia coli strain ATCC25922, microdilution
Outline: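 Broth microdilution MIC against E. coli ATCC25922, following CLSI protocols, typically in a 100 microliter final volume. Results reported as +/− relative to a 16 micrograms/ml cutoff.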

| Compound | E. coli ATCC25922 MIC |
| --- | --- |
| N=C(N)NOCCNC(=O)c1ccc(-n2cc3cc(-c4ccc(S(=O)(=O)NC5CCNCC5)cc4)[nH]c3nc2=O)cc1 [Compound 1137] | − (a “−” indicates that the compound has an MIC value greater than 16 micrograms/ml) |
| CN1CCN(CCOc2cc(-n3cc4cc(-c5ccc(S(=O)(=O)NC6CCNCC6)cc5)[nH]c4nc3=O)ccc2C(=O)NCCCNC(=N)N)CC1 [Compound 1152] | − (a “−” indicates that the compound has an MIC value greater than 16 micrograms/ml) |
| COCCOCCN(C1CCNCC1)S(=O)(=O)c1cccc(-c2cc3cn(-c4ccc(CNCCCNC(=N)N)cc4)c(=O)nc3[nH]2)c1 [Compound 1161] | + (a “+” indicates that the compound has an MIC value of 16 micrograms/ml or less) |
| N=C(N)NCCCNCc1ccc(-n2cc3cc(-c4ccc(S(=O)(=O)C[C@@H](O)CN5CCCCC5)cc4)[nH]c3nc2=O)cc1 [Compound 1171] | + (a “+” indicates that the compound has an MIC value of 16 micrograms/ml or less) |
| N=C(N)NCCCNCc1ccc(-n2cc3cc(-c4cccc(S(=O)(=O)N(CCc5ccc(F)cc5)C5CCNCC5)c4)[nH]c3nc2=O)cc1 [Compound 1172] | + (a “+” indicates that the compound has an MIC value of 16 micrograms/ml or less) |
| N=C(N)NC(=O)CCNCc1ccc(-n2cc3cc(-c4ccc(S(=O)(=O)NC5CCNCC5)cc4)[nH]c3nc2=O)cc1 [Compound 1173] | − (a “−” indicates that the compound has an MIC value greater than 16 micrograms/ml) |
| N=C(N)NCCCNCc1ccc(-n2cc3cc(-c4ccc(S(=O)(=O)N(CCCc5cc(-c6ccccc6)n[nH]5)C5CCNCC5)cc4)[nH]c3nc2=O)cc1 [Compound 1175] | + (a “+” indicates that the compound has an MIC value of 16 micrograms/ml or less) |
| N=C(N)NCCCNCc1ccc(-n2cc3cc(-c4cccc(S(=O)(=O)N(CCn5cccn5)C5CCNCC5)c4)[nH]c3nc2=O)cc1 [Compound 1176] | + (a “+” indicates that the compound has an MIC value of 16 micrograms/ml or less) |
| N=C(N)N[C@@H]1CCCN(Cc2ccc(-n3cc4cc(-c5ccc(S(=O)(=O)N(Cc6ccncc6)C6CCNCC6)cc5)[nH]c4nc3=O)cc2)C1 [Compound 1177] | − (a “−” indicates that the compound has an MIC value greater than 16 micrograms/ml) |
| N=C(N)NC1CCN(Cc2ccc(-n3cc4cc(-c5ccc(S(=O)(=O)N(Cc6ccncc6)C6CCNCC6)cc5)[nH]c4nc3=O)cc2)C1 (centres unmarked) [Compound 1178] | + (a “+” indicates that the compound has an MIC value of 16 micrograms/ml or less) |
| NCCCOc1cccc(-c2cc3cn(-c4ccc(CNCCCN=C(N)N)cc4)c(=O)nc3[nH]2)c1 [Compound 1179] | + (a “+” indicates that the compound has an MIC value of 16 micrograms/ml or less) |
| NC(N)=NCCCNCc1ccc(-n2cc3cc(-c4cccc(S(=O)(=O)N(CCc5cccc([N+](=O)[O-])c5)C5CCNCC5)c4)[nH]c3nc2=O)cc1 [Compound 1185] | + (a “+” indicates that the compound has an MIC value of 16 micrograms/ml or less) |
| NC(N)=NCCCNCc1ccc(-n2cc3cc(-c4cccc(S(=O)(=O)N(CCN5CCCC5)C5CCNCC5)c4)[nH]c3nc2=O)cc1 [Compound 1186] | + (a “+” indicates that the compound has an MIC value of 16 micrograms/ml or less) |
| NC(N)=NCCC(=O)NCc1ccc(-n2cc3cc(-c4ccc(S(=O)(=O)N(CCCc5cccnc5)C5CCNCC5)cc4)[nH]c3nc2=O)cc1 [Compound 1190] | − (a “−” indicates that the compound has an MIC value greater than 16 micrograms/ml) |
| NC(=O)CCCN(C1CCNCC1)S(=O)(=O)c1ccc(-c2cc3cn(-c4ccc(CNC(=O)CCN=C(N)N)cc4)c(=O)nc3[nH]2)cc1 [Compound 1194] | − (a “−” indicates that the compound has an MIC value greater than 16 micrograms/ml) |
| NC(N)=NCCC(=O)NCc1ccc(-n2cc3cc(-c4ccc(S(=O)(=O)N(CCOc5ccc(F)cc5)C5CCNCC5)cc4)[nH]c3nc2=O)cc1 [Compound 1196] | − (a “−” indicates that the compound has an MIC value greater than 16 micrograms/ml) |
| N=C(N)N[C@@H]1CCN(Cc2ccc(-n3cc4cc(-c5ccc(S(=O)(=O)N(CCCN6CCCCC6)C6CCNCC6)cc5)[nH]c4nc3=O)cc2)C1 [Compound 1201] | + (a “+” indicates that the compound has an MIC value of 16 micrograms/ml or less) |

Same assay, conditions: Escherichia coli, ATCC25922, Escherichia coli strain ATCC25922, microdilution; read-out: E. coli ATCC25922 MIC

| Compound | MIC |
| --- | --- |
| NOCCNC(=O)c1ccc(-n2cc3cc(-c4ccc(S(=O)(=O)NC5CCNCC5)cc4)[nH]c3nc2=O)cc1 [Compound 1136] | > 16 µg/mL |
| N=C(N)N[C@@H]1CCN(Cc2ccc(-n3cc4cc[nH]c4nc3=O)cc2)C1 [Compound 1140] | > 16 µg/mL |
| O=c1nc2[nH]c(-c3ccc(S(=O)(=O)NC4CCNCC4)cc3)cc2cn1-c1cccc(OCC2CCNCC2)c1 [Compound 1141] | > 16 µg/mL |
| NCc1ccc(-n2cc3cc(-c4cccc(OCCNC(N)=O)c4)[nH]c3nc2=O)cc1 [Compound 1142] | > 16 µg/mL |
| CC(=O)NCCOc1cccc(-c2cc3cn(-c4ccc(CN)cc4)c(=O)nc3[nH]2)c1 [Compound 1143] | > 16 µg/mL |
| NCCOc1cccc(-c2cc3cn(-c4ccc(CN)cc4)c(=O)nc3[nH]2)c1 [Compound 1144] | > 16 µg/mL |
| O=c1nc2[nH]c(-c3ccc(S(=O)(=O)NC4CCNCC4)cc3)cc2cn1-c1cccc(OC2CCNC2)c1 (centres unmarked) [Compound 1148] | > 16 µg/mL |
| NCC(O)Cn1cc2cc(-c3ccc(S(=O)(=O)NC4CCNCC4)cc3)[nH]c2nc1=O (centres unmarked) [Compound 1149] | > 16 µg/mL |
| N=C(N)CCCOc1cccc(-c2cc3cn(-c4ccc(CN)cc4)c(=O)nc3[nH]2)c1 [Compound 1150] | > 16 µg/mL |
| N#CCCCOc1cccc(-c2cc3cn(-c4ccc(CN)cc4)c(=O)nc3[nH]2)c1 [Compound 1151] | > 16 µg/mL |
| CS(=O)(=O)NCc1cc2cn(-c3ccc(CNCCCNC(=N)N)cc3)c(=O)nc2[nH]1 [Compound 1153] | > 16 µg/mL |
| N=C(N)NCCCNCc1ccc(-n2cc3cc(-c4ccc(S(=O)(=O)[C@H]5CCNC5)cc4)[nH]c3nc2=O)cc1 [Compound 1154] | < 16 µg/mL |
| N=C(N)N[C@H]1CCCN(Cc2ccc(-n3cc4cc[nH]c4nc3=O)cc2)C1 [Compound 1155] | > 16 µg/mL |
| N[C@H]1CCCN(Cc2ccc(-n3cc4cc[nH]c4nc3=O)cc2)C1 [Compound 1156] | > 16 µg/mL |
| NCc1ccc(-n2cc3cc(-c4cccc(S(=O)(=O)N(CCn5ccnc5)C5CCNCC5)c4)[nH]c3nc2=O)cc1 [Compound 1157] | > 16 µg/mL |
| COCCOCCN(C1CCNCC1)S(=O)(=O)c1cccc(-c2cc3cn(-c4ccc(CN)cc4)c(=O)nc3[nH]2)c1 [Compound 1158] | > 16 µg/mL |
| N=C(N)NCCCNCc1ccc(-n2cc3cc(-c4cccc(S(=O)(=O)N(CCn5ccnc5)C5CCNCC5)c4)[nH]c3nc2=O)cc1 [Compound 1159] | < 16 µg/mL |
| NCc1ccc(-n2cc3cc(-c4cccc(S(=O)(=O)N(CCc5ccc(F)cc5)C5CCNCC5)c4)[nH]c3nc2=O)cc1 [Compound 1160] | > 16 µg/mL |
| N=C(N)NCCCNCc1ccc(-n2cc3cc(-c4cccc(OCCCN5CCNCC5)c4)[nH]c3nc2=O)cc1 [Compound 1162] | < 16 µg/mL |
| N=C(N)NCCC(=O)NCc1ccc(-n2cc3cc(-c4ccc(C[C@H](N)CO)cc4)[nH]c3nc2=O)cc1 [Compound 1163] | < 16 µg/mL |

| Compound | MIC |
| --- | --- |
| N=C(N)NCCCNC(=O)c1ccc(-n2cc3cc(-c4ccc(C[C@H](N)CO)cc4)[nH]c3nc2=O)cc1 [Compound 1164] | < 16 µg/mL |
| O=c1nc2[nH]c(-c3ccc(S(=O)(=O)NC4CCNCC4)cc3)cc2cn1-c1ccccc1OCC1CCNCC1 [Compound 1165] | > 16 µg/mL |
| N=C(N)NCCCNCc1ccc(-n2cc3cc(-c4ccccc4OCCCN4CCNCC4)[nH]c3nc2=O)cc1 [Compound 1166] | > 16 µg/mL |
| CN(C)CCOc1ccccc1-c1cc2cn(-c3ccc(CNCCCNC(=N)N)cc3)c(=O)nc2[nH]1 [Compound 1167] | > 16 µg/mL |
| NCc1ccc(-n2cc3cc(-c4cccc(OCCF)c4)[nH]c3nc2=O)cc1 [Compound 1168] | > 16 µg/mL |
| NCc1ccc(-n2cc3cc(-c4cccc(S(=O)(=O)N(CCn5cccn5)C5CCNCC5)c4)[nH]c3nc2=O)cc1 [Compound 1174] | > 16 µg/mL |
| N=C(N)NCCCNCc1ccc(-n2cc3cc(-c4ccc(S(=O)(=O)C5CCNCC5)cc4)[nH]c3nc2=O)cc1 [Compound 1180] | < 16 µg/mL |
| CN(C)CCCOc1cccc(-c2cc3cn(-c4ccc(CNCCCNC(=N)N)cc4)c(=O)nc3[nH]2)c1 [Compound 1181] | < 16 µg/mL |
| NCc1ccc(-n2cc3cc(-c4cccc(S(=O)(=O)N(CCc5ccc(O)cc5)C5CCNCC5)c4)[nH]c3nc2=O)cc1 [Compound 1182] | > 16 µg/mL |
| NCc1ccc(-n2cc3cc(-c4cccc(S(=O)(=O)N(CCN5CCCC5)C5CCNCC5)c4)[nH]c3nc2=O)cc1 [Compound 1183] | > 16 µg/mL |
| NCc1ccc(-n2cc3cc(-c4cccc(S(=O)(=O)N(CCc5cccc([N+](=O)[O-])c5)C5CCNCC5)c4)[nH]c3nc2=O)cc1 [Compound 1184] | > 16 µg/mL |
| NCc1ccc(-n2cc3cc(-c4cccc(S(=O)(=O)N(CCn5cccc5)C5CCNCC5)c4)[nH]c3nc2=O)cc1 [Compound 1187] | > 16 µg/mL |
| O=c1nc2[nH]c(-c3ccc(S(=O)(=O)NC4CCNCC4)cc3)cc2cn1-c1cccc(OCc2c[nH]cn2)c1 [Compound 1188] | > 16 µg/mL |
| N=C(N)NCCCNCc1ccc(-n2cc3cc(CCS(=O)(=O)CCN)[nH]c3nc2=O)cc1 [Compound 1189] | < 16 µg/mL |
| N=C(N)CCCOc1cccc(-c2cc3cn(-c4ccc(CNCCCNC(=N)N)cc4)c(=O)nc3[nH]2)c1 [Compound 1191] | > 16 µg/mL |
| N=C(N)NCCCNCc1ccc(-n2cc3cc(-c4cccc(CCN5CCNCC5)c4)[nH]c3nc2=O)cc1 [Compound 1199] | < 16 µg/mL |
| NCc1ccc(-n2cc3cc(-c4cccc(CCN5CCNCC5)c4)[nH]c3nc2=O)cc1 [Compound 1200] | > 16 µg/mL |
| CN(C)CCCOc1cccc(-c2cc3cn(-c4ccc(CNC(=O)CCNC(=N)N)cc4)c(=O)nc3[nH]2)c1 [Compound 1202] | > 16 µg/mL |
| N#CCCCOc1cccc(-c2cc3cn(-c4ccc(CNCCCNC(=N)N)cc4)c(=O)nc3[nH]2)c1 [Compound 1203] | > 16 µg/mL |
